From the kinase profiling compilation of Christmann-Franck et al. (2016)

Assays:
Assay in all cases: radiometric filter-binding kinase assay, Kinase HotSpot
Conditions in all cases: compound 0.5 µM; ATP 10 µM
ADRBK1 (human) = ADRBK1 (human) (UniProt P25098)
AURKB (human) = AURKB (human) (UniProt Q96GD4)
CAMK2A (human) = CAMK2A (human) (UniProt Q9UQM7)
CDK2 CCNE1 (human) = CDK2 CCNE1 (human) (UniProt P24941+P24864)
CHUK (human) = CHUK (human) (UniProt O15111)
CLK1 (human) = CLK1 (human) (UniProt P49759)
CLK4 (human) = CLK4 (human) (UniProt Q9HAZ1)
EPHA7 (human) = EPHA7 (human) (UniProt Q15375)
EPHB3 (human) = EPHB3 (human) (UniProt P54753)
EPHB4 (human) = EPHB4 (human) (UniProt P54760)
ERBB2 (human) = ERBB2 (human) (UniProt P04626)
Sequence of ERBB2 (human) (P04626 whole entry, looked up): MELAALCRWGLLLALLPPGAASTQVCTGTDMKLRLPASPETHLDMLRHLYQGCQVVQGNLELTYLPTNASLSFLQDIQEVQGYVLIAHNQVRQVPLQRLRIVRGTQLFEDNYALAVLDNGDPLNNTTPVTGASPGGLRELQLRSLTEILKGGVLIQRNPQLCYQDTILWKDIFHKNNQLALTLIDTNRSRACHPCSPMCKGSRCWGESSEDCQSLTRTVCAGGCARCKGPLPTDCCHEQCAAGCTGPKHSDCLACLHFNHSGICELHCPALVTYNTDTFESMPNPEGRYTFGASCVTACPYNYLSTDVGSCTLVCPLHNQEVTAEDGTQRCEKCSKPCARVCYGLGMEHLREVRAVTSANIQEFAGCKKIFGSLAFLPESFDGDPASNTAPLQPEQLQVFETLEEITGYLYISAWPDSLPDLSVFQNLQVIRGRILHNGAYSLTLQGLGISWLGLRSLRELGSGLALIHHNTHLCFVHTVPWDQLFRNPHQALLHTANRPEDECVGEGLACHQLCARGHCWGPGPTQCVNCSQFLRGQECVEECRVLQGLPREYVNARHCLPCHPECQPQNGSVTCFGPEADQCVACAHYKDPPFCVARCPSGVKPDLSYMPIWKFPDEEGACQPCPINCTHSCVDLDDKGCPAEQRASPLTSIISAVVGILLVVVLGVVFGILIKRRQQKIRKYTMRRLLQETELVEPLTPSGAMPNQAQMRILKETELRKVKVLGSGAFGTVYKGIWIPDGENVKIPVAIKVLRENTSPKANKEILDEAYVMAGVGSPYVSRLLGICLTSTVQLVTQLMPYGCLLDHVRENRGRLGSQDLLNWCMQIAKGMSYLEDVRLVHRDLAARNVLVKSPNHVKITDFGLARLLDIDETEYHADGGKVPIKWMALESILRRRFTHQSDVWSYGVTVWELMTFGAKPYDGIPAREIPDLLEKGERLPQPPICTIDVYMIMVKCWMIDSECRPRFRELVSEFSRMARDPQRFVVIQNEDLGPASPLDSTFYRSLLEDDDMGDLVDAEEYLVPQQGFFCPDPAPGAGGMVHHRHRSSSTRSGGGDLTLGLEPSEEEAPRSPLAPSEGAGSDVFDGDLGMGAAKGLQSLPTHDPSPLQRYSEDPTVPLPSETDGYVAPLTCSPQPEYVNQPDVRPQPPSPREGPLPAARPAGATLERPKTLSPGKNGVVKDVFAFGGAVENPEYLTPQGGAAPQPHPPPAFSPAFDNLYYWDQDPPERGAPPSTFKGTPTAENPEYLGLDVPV

IGF1R (human) = IGF1R (human) (UniProt P08069)
Sequence of IGF1R (human) (P08069 whole entry, looked up): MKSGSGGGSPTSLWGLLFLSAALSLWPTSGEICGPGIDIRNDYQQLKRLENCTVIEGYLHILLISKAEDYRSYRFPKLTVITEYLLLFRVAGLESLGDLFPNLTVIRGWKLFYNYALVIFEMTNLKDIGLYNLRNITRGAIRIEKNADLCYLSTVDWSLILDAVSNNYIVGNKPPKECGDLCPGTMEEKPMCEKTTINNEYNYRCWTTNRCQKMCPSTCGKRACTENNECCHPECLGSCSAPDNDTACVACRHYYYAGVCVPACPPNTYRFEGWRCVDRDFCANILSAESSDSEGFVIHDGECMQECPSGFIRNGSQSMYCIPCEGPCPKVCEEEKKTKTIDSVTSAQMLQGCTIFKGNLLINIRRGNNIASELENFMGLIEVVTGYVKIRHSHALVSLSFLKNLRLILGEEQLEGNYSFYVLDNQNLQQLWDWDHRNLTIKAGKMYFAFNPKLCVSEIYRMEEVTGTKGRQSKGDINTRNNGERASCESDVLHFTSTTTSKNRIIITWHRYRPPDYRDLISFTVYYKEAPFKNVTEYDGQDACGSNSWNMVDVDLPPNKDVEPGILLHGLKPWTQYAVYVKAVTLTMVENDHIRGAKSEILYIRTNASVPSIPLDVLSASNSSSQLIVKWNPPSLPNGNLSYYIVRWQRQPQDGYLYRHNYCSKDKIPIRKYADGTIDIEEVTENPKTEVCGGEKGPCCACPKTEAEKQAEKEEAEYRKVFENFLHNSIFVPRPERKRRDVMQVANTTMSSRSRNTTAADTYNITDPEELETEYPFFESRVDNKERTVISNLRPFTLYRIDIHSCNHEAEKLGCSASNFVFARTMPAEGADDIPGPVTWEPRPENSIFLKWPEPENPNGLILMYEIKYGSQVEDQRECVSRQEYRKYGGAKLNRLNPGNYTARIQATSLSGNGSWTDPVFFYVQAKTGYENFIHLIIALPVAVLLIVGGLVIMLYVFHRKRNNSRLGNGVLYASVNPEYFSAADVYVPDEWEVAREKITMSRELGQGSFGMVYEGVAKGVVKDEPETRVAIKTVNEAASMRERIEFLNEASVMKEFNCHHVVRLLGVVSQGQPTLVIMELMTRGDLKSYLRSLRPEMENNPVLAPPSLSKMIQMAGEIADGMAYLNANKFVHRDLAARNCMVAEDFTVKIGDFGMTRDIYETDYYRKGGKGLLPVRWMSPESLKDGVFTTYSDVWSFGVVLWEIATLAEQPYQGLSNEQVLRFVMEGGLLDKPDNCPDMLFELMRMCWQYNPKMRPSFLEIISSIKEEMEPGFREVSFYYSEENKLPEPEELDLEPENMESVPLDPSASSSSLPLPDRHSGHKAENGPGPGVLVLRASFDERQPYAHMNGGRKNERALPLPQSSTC

IRAK4 (human) = IRAK4 (human) (UniProt Q9NWZ3)
KDR (human) = KDR (human) (UniProt P35968)
MAP3K10 (human) = MAP3K10 (human) (UniProt Q02779)
Sequence of MAP3K10 (human) (Q02779 whole entry, looked up): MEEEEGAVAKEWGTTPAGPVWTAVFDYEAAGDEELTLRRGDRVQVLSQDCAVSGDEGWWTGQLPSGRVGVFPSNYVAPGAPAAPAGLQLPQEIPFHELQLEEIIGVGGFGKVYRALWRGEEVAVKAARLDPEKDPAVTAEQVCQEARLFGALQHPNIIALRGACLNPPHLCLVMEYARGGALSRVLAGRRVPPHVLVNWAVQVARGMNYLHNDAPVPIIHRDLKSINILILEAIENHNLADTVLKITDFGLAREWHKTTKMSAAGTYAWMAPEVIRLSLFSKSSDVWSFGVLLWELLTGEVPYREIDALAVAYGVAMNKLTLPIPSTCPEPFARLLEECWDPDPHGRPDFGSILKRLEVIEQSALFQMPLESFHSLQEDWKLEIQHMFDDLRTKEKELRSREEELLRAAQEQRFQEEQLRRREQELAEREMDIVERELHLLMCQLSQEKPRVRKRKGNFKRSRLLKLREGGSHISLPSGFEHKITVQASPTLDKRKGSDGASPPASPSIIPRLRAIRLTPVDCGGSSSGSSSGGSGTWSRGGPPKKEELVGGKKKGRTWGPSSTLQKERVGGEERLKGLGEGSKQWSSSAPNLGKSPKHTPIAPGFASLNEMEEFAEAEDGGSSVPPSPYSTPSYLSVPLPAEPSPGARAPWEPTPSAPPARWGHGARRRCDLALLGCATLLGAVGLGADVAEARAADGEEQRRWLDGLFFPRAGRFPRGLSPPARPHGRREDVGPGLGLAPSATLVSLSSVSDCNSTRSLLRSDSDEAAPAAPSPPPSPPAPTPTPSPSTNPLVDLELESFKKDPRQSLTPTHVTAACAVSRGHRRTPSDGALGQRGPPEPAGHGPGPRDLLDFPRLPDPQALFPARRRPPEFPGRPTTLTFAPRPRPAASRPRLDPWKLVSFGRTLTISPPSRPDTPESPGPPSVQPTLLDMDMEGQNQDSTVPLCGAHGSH

MAP3K7 TAB1 (human) = MAP3K7 TAB1 (human) (UniProt O43318+Q15750)
MAP3K8 (human) = MAP3K8 (human) (UniProt P41279)
MAP4K5 (human) = MAP4K5 (human) (UniProt Q9Y4K4)
MAPK10 (human) = MAPK10 (human) (UniProt P53779)
MAPKAPK2 (human) = MAPKAPK2 (human) (UniProt P49137)
Sequence of MAPKAPK2 (human) (P49137 whole entry, looked up): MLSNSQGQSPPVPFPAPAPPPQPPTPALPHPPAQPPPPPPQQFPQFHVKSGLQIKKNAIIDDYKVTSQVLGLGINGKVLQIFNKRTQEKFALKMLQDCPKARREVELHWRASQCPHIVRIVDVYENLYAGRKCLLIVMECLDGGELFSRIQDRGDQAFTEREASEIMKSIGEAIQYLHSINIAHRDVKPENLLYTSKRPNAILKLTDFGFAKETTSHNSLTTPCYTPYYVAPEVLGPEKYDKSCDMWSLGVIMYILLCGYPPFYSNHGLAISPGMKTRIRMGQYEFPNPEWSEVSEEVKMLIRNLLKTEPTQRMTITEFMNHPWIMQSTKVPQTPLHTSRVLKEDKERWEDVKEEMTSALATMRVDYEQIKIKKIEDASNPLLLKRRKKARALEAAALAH

MAPKAPK3 (human) = MAPKAPK3 (human) (UniProt Q16644)
MET (human) = MET (human) (UniProt P08581)
NTRK1 (human) = NTRK1 (human) (UniProt P04629)
PASK (human) = PASK (human) (UniProt Q96RG2)
PIM1 (human) = PIM1 (human) (UniProt P11309)
Sequence of PIM1 (human) (P11309 whole entry, looked up): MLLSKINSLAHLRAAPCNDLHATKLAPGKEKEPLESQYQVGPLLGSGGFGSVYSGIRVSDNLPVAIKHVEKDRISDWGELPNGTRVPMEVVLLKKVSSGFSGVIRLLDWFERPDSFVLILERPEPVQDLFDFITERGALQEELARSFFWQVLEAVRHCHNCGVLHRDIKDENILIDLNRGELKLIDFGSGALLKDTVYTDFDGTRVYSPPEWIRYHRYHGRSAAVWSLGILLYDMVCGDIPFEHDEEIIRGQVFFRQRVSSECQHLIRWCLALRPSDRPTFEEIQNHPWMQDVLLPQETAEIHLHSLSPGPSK

PRKCB2 (human) = PRKCB2 (human) (UniProt P05771)
Sequence of PRKCB2 (human) (P05771 whole entry, looked up): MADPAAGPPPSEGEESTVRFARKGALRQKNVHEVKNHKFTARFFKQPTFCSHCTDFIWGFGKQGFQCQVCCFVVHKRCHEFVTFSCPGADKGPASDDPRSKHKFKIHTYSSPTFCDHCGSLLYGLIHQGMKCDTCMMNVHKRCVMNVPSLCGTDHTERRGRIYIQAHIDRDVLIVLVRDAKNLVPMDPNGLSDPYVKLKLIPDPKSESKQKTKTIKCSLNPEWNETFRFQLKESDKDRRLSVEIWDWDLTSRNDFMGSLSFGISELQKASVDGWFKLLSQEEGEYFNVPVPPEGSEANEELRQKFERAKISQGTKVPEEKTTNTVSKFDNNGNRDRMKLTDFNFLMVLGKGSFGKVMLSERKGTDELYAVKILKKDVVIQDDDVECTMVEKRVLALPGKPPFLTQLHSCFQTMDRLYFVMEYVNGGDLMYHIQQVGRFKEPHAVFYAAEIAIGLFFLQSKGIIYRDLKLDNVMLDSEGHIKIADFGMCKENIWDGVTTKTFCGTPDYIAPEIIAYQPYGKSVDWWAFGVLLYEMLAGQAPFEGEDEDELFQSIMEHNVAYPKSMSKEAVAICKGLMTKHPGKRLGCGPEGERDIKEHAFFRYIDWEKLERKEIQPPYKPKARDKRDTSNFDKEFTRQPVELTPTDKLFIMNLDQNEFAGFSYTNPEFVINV

PRKCE (human) = PRKCE (human) (UniProt Q02156)
PRKCG (human) = PRKCG (human) (UniProt P05129)
[1] = test system: PRKCQ (human), Q04759 [P330L]
PRKD3 (human) = PRKD3 (human) (UniProt O94806)
PTK2 (human) = PTK2 (human) (UniProt Q05397)
PTK6 (human) = PTK6 (human) (UniProt Q13882)
RET (human) = RET (human) (UniProt P07949)
RPS6KA1 KD1 KD2 (human) = RPS6KA1 KD1 KD2 (human) (UniProt Q15418)
RPS6KA4 KD2 (human) = RPS6KA4 KD2 (human) (UniProt O75676)
RPS6KA5 KD2 (human) = RPS6KA5 KD2 (human) (UniProt O75582)
RPS6KA6 KD1 KD2 (human) = RPS6KA6 KD1 KD2 (human) (UniProt Q9UK32)
SRPK1 (human) = SRPK1 (human) (UniProt Q96SB4)
STK25 (human) = STK25 (human) (UniProt O00506)
TAOK1 (human) = TAOK1 (human) (UniProt Q7L7X3)
ULK1 (human) = ULK1 (human) (UniProt O75385)
YES1 (human) = YES1 (human) (UniProt P07947)

Structure (SMILES): COc1ccc(S(=O)(=O)N(CCO)c2ccccc2CN(C)C/C=C/c2ccc(Cl)cc2)cc1
- residual activity (ADRBK1 (human)): 97.9%
- residual activity (AURKB (human)): 106%
- residual activity (CAMK2A (human)): 107%
- residual activity (CDK2 CCNE1 (human)): 94%
- residual activity (CHUK (human)): 92.7%
- residual activity (CLK1 (human)): 96.4%
- residual activity (CLK4 (human)): 96%
- residual activity (EPHA7 (human)): 98.9%
- residual activity (EPHB3 (human)): 92.8%
- residual activity (EPHB4 (human)): 104%
- residual activity (ERBB2 (human)): 97.8%
- residual activity (IGF1R (human)): 103%
- residual activity (IRAK4 (human)): 97.2%
- residual activity (KDR (human)): 101%
- residual activity (MAP3K10 (human)): 92.4%
- residual activity (MAP3K7 TAB1 (human)): 94.7%
- residual activity (MAP3K8 (human)): 96.3%
- residual activity (MAP4K5 (human)): 99.7%
- residual activity (MAPK10 (human)): 95.5%
- residual activity (MAPKAPK2 (human)): 102%
- residual activity (MAPKAPK3 (human)): 101%
- residual activity (MET (human)): 98.2%
- residual activity (NTRK1 (human)): 110%
- residual activity (PASK (human)): 103%
- residual activity (PIM1 (human)): 104%
- residual activity (PRKCB2 (human)): 102%
- residual activity (PRKCE (human)): 97.2%
- residual activity (PRKCG (human)): 95.1%
- residual activity [1]: 110%
- residual activity (PRKD3 (human)): 97.1%
- residual activity (PTK2 (human)): 104%
- residual activity (PTK6 (human)): 89.3%
- residual activity (RET (human)): 103%
- residual activity (RPS6KA1 KD1 KD2 (human)): 108%
- residual activity (RPS6KA4 KD2 (human)): 107%
- residual activity (RPS6KA5 KD2 (human)): 103%
- residual activity (RPS6KA6 KD1 KD2 (human)): 102%
- residual activity (SRPK1 (human)): 105%
- residual activity (STK25 (human)): 99.6%
- residual activity (TAOK1 (human)): 103%
- residual activity (ULK1 (human)): 99.7%
- residual activity (YES1 (human)): 103%

Structure (SMILES): O=C(c1cc2cc(O)ccc2[nH]1)c1cc2cc(O)ccc2[nH]1
- residual activity (ADRBK1 (human)): 98.2%
- residual activity (AURKB (human)): 24.2%
- residual activity (CAMK2A (human)): 74.5%
- residual activity (CDK2 CCNE1 (human)): 65%
- residual activity (CHUK (human)): 103%
- residual activity (CLK1 (human)): 82.1%
- residual activity (CLK4 (human)): 79.1%
- residual activity (EPHA7 (human)): 101%
- residual activity (EPHB3 (human)): 92.3%
- residual activity (EPHB4 (human)): 89.3%
- residual activity (ERBB2 (human)): 113%
- residual activity (IGF1R (human)): 103%
- residual activity (IRAK4 (human)): 85.9%
- residual activity (KDR (human)): 69.9%
- residual activity (MAP3K10 (human)): 91.7%
- residual activity (MAP3K7 TAB1 (human)): 79.5%
- residual activity (MAP3K8 (human)): 93%
- residual activity (MAP4K5 (human)): 28.7%
- residual activity (MAPK10 (human)): 91.6%
- residual activity (MAPKAPK2 (human)): 103%
- residual activity (MAPKAPK3 (human)): 91.2%
- residual activity (MET (human)): 89.2%
- residual activity (NTRK1 (human)): 57.2%
- residual activity (PASK (human)): 78.7%
- residual activity (PIM1 (human)): 76.1%
- residual activity (PRKCB2 (human)): 98.9%
- residual activity (PRKCE (human)): 119%
- residual activity (PRKCG (human)): 85.1%
- residual activity [1]: 92.1%
- residual activity (PRKD3 (human)): 54.9%
- residual activity (PTK2 (human)): 109%
- residual activity (PTK6 (human)): 91.9%
- residual activity (RET (human)): 8.98%
- residual activity (RPS6KA1 KD1 KD2 (human)): 30.1%
- residual activity (RPS6KA4 KD2 (human)): 81.3%
- residual activity (RPS6KA5 KD2 (human)): 96.1%
- residual activity (RPS6KA6 KD1 KD2 (human)): 26.7%
- residual activity (SRPK1 (human)): 92.2%
- residual activity (STK25 (human)): 105%
- residual activity (TAOK1 (human)): 85.6%
- residual activity (ULK1 (human)): 60.1%
- residual activity (YES1 (human)): 18.8%
